Reference: article PMC4966941 (PLoS ONE, 2016)
Where a name gives a salt, the structure may show the parent alone.

Columns and labels:
[1] = tested on: human corneal endothelial cells; parameters: method as in Yoeruek et al. [40]; conditions: ref Yoeruek et al. [40]; cited from earlier work
[2] = tested on: Staphylococcus aureus Xen 36; assay: In-vivo infection prevention study: X-ray and micro-CT signs of tibial osteomyelitis
Procedure: Bioluminescent strain Staphylococcus aureus Xen 36 (Caliper LifeSciences, Alameda, CA) was used to develop bone infection. The strain was stored in a glycerol (20% v/v) and Brain Heart Infusion (BHI) suspension at -80°C until required. Bacteria were subcultured onto an LB plate (Luria-Bertani, Miller broth mixed with 1.2% (w/v) Technical Agar (Difco, Sparks, MD.)), at 37°C overnight. Five colonies were then transferred to 3 mL LB broth and grown in shaker incubator (200 rpm), at 37°C for 2.5 h. Two milliliters of the bacterial suspension was transferred to 100 mL LB broth and grown for a further 4 h, until the cells reached exponential growth. Bacterial suspension was transferred into 50 mL centrifuge tubes and cells centrifuged at ~3,000 rpm for 30 min. Supernatants were discarded and pellets were re-suspended in 15 mL Phosphate Buffered Saline (PBS). Cells were then mixed by vortexing and the centrifugation process was repeated. This cell washing process was repeated three times. The final washed and pelleted cells were re-suspended in a total of 10 mL PBS, and mixed by vortexing. The cell suspension was then ten-fold serially diluted. The concentration of the cell suspension was then determined using the spread plate technique and spreading 100 μL of the various dilutions onto LB plates, in duplicate. Plates were incubated at 37°C overnight before counting colony forming units (CFU). […]

[3] = tested on: chondrocyte (N1511) cells; parameters: method as in Antoci et al. [39]; conditions: ref Antoci et al. [39]; cited from earlier work

For CN[C@H](CC(C)C)C(=O)N[C@H]1C(=O)N[C@@H](CC(N)=O)C(=O)N[C@H]2C(=O)N[C@H]3C(=O)N[C@H](C(=O)N[C@H](C(=O)O)c4cc(O)cc(O)c4-c4cc3ccc4O)[C@H](O)c3ccc(c(Cl)c3)Oc3cc2cc(c3O[C@@H]2O[C@H](CO)[C@@H](O)[C@H](O)[C@H]2O[C@H]2C[C@](C)(N)[C@H](O)[C@H](C)O2)Oc2ccc(cc2Cl)[C@H]1O [vancomycin, vancomycin hydrochloride], the “Vancomycin concentrations leading to near total destruction” value [1] is listed as “over 10 mg/mL”, the “Vancomycin concentrations leading to significant reductions in viability” value [1] is listed as “higher than 5 mg/mL” and the “Vancomycin treated rats displaying radiographic signs of osteomyelitis” value ([2]; rat tibia inoculated with S. aureus Xen 36 (Log10 5.5 CFU/5 μL) with simultaneous single 25 mg/Kg intramedullary dose, 14 days, n = 9) is listed as “zero”. The “Micro CT evaluation of treated rats” value ([2]; rat tibia inoculated with S. aureus Xen 36, single 25 mg/Kg intramedullary dose, compared to untreated controls) was “absent of any signs of osteomyelitis” and the “Doses that severely decreased cellular proliferation” value [3] was “greater than 2 mg/mL”.
